# From US11673880B2, “Solid state forms of ivosidenib” (ASSIA CHEMICAL INDUSTRIES LTD., priority 2017, dated 2023)
# Tests used:
# Assay type in all cases: physicochemical
# [1] = Stability and flowability of the solid form (statement, no method given)
# [2] = Karl Fischer water content
# Description: Water content analysis was performed on Metrohm 890 Titando instrument. About 100 mg sample was added to the titrator, the water content is measured in % w/w by measuring the amount of iodine consumed as a result of reaction with water in the sample.
# [3] = Thermogravimetric analysis (TGA) of Forms T14 and T15; conditions: temperature changed from 27.1° C. to 170° C.
# Description: Procedure for Thermo Gravimetric Analysis (TGA) for Forms T14 and T15:
# Thermogravimetric analysis was conducted on a TA instrument Q500 thermogravimetric analyzer. About 9.4 mg sample was placed into a tared TGA crucible and placed into a TGA furnace. The furnace was heated under nitrogen at a heating rate of 10° C./min up to 250° C.
flowability [1],stability of the crystalline form [1],moisture / water content (KF Titration method) [2],weight loss of the weight of the sample (TGA) [3],Structure (SMILES)
very good flowability,stable,–,–,"N#Cc1ccnc(N2C(=O)CC[C@H]2C(=O)N(c2cncc(F)c2)[C@H](C(=O)NC2CC(F)(F)C2)c2ccccc2Cl)c1 [Form T11, Ivosidenib]"
–,–,2.7%,about 2.786%,"N#Cc1ccnc(N2C(=O)CC[C@H]2C(=O)N(c2cncc(F)c2)[C@H](C(=O)NC2CC(F)(F)C2)c2ccccc2Cl)c1 [Form T14, Ivosidenib]"
–,–,3.39%,about 3.899%,"N#Cc1ccnc(N2C(=O)CC[C@H]2C(=O)N(c2cncc(F)c2)[C@H](C(=O)NC2CC(F)(F)C2)c2ccccc2Cl)c1 [Form T15, Ivosidenib]"
